This note sets out measurements from ChEMBL document CHEMBL1201862, “PubChem BioAssay data set” (2004).

Some test systems named below: CCRF-CEM; SF-295; HL-60; OVCAR-4; NCI/ADR-RES; DU-145; CAKI-1; NCI-H226; M14; MOLT-4; UACC-257; 786-0; SNB-75; MDA-MB-435; HCT-15; SNB-19; COLO 205; K562; SK-MEL-2; TK-10.
Holding throughout (test): inhibition of tumour cell growth, NCI panel, 48 h

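Dose response: 5 concentrations. Exposure: 48 h. Format: 96-well plates. Endpoint: linear interpolation; highest concentration if not reached. Here, GI50 denotes the concentration required for 50% inhibition of growth.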 Calls of active or inactive are those of the source. No stated cut-off is given here; in the data, active = GI50 up to about 1.1 µM and inactive = higher. Bounds are passed on as bounds.

For the compound `COc1cc2c(c(O)c1OC)C(O)C1CCC(=O)N1C2c1cccc2ccccc12` (stereo not drawn), the GI50 in the assay on CCRF-CEM is 81.7 µM (inactive); with SF-295, 99.8 µM (inactive); with HL-60, > 100 µM (inactive); in the assay on OVCAR-4, 65.6 µM (inactive); in the assay with NCI/ADR-RES, 54.6 µM (inactive); in the assay with DU-145, > 100 µM (inactive). For the same compound, the GI50 in the assay on CAKI-1 is > 100 µM (inactive); in the assay with NCI-H226, > 100 µM (inactive); with M14, > 100 µM (inactive); in the assay on MOLT-4 it was 58.2 µM (inactive); with UACC-257 it was > 100 µM (inactive); with 786-0 it was > 100 µM (inactive). Further, the GI50 was 27 µM (inactive) with SNB-75; 51.4 µM (inactive) in the assay on MDA-MB-435; over 100 µM in the assay with HCT-15; > 100 µM (inactive) with SNB-19; > 100 µM (inactive) in the assay with COLO 205; > 100 µM (inactive) with K562. Also, the GI50 with SK-MEL-2 was > 100 µM (inactive).
As for `COc1ccccc1N1C(=O)CSC1c1cc(OC)c(OC)c(OC)c1` (stereo not drawn), the GI50 is 13.2 µM (inactive) in the assay with CCRF-CEM; > 30.4 µM (inactive) with SF-295; 20.5 µM (inactive) with HL-60; > 77.8 µM (inactive) with OVCAR-4; > 100 µM (inactive) with TK-10; 69.8 µM (inactive) in the assay on NCI/ADR-RES. The GI50 is > 100 µM (inactive) with DU-145; > 35 µM (inactive) in the assay on CAKI-1; > 50 µM (inactive) in the assay on NCI-H226; > 88.5 µM (inactive) with M14; 27.9 µM (inactive) in the assay on MOLT-4; > 84.7 µM (inactive) in the assay on UACC-257. Also, the GI50 with 786-0 was 18.8 µM (inactive); in the assay on SNB-75, > 100 µM (inactive); in the assay with MDA-MB-435, 14.7 µM (inactive); in the assay on HCT-15, 50.6 µM; with COLO 205, > 100 µM (inactive); in the assay with K562, 24.9 µM (inactive). Besides, the GI50 with SK-MEL-2 was 55.7 µM (inactive).
Consider `NC(=S)Nc1nc(=S)[nH]c2[nH]ccc12`, for which the GI50 was 24.2 µM (inactive) in the assay on CCRF-CEM; 65.5 µM (inactive) in the assay on SF-295; 19.1 µM (inactive) with HL-60; 94.8 µM (inactive) in the assay on TK-10; > 100 µM (inactive) in the assay with NCI/ADR-RES; > 100 µM (inactive) in the assay with DU-145. Further, the GI50 in the assay with CAKI-1 was > 100 µM (inactive); in the assay on NCI-H226 it was > 100 µM (inactive); with M14, > 100 µM (inactive); with MOLT-4, 21.1 µM (inactive); with UACC-257 it was > 100 µM (inactive); in the assay on 786-0, > 100 µM (inactive). Besides, the GI50 in the assay on SNB-75 was < 0.01 µM (active); in the assay with MDA-MB-435, 30.9 µM (inactive); in the assay with HCT-15, 41.7 µM; with SNB-19, > 100 µM (inactive); with COLO 205 it was 82.4 µM (inactive); in the assay on K562 it was 31 µM (inactive). The GI50 with SK-MEL-2 was > 100 µM (inactive).
With `COC(=O)C1(CCC(=O)N(C)c2ccccc2)NNC2C(=O)N(c3ccccc3)C(=O)C21` (stereo not drawn), the GI50 with CCRF-CEM, in the assay on SF-295, with HL-60, in the assay with OVCAR-4, with TK-10 and in the assay on NCI/ADR-RES was > 10 µM (inactive) in each case. Also, the GI50 in the assay on DU-145, with CAKI-1, in the assay on NCI-H226, in the assay with M14, with UACC-257 and in the assay on 786-0 was > 10 µM (inactive) in each case. In addition, the GI50 with SNB-75 was > 10 µM (inactive); in the assay on MDA-MB-435, > 10 µM (inactive); in the assay on HCT-15 it was over 10 µM; in the assay with SNB-19, > 10 µM (inactive); in the assay on COLO 205, > 10 µM (inactive); in the assay on SK-MEL-2, > 10 µM (inactive).
For `Clc1nc(Cl)c(Cc2ccccc2)c(Cl)n1`, the GI50 in the assay with CCRF-CEM is 3.27 µM (inactive); with SF-295, 14.4 µM (inactive); with HL-60, 7.45 µM (inactive); in the assay on OVCAR-4 it was 3.67 µM (inactive); in the assay with TK-10, 18.3 µM (inactive); in the assay on NCI/ADR-RES, 4.8 µM (inactive). For the same compound, the GI50 in the assay on DU-145 is 14.8 µM (inactive); with NCI-H226, 13.3 µM (inactive); in the assay on M14, 2.82 µM (inactive); with MOLT-4 it was 2.98 µM (inactive); in the assay with UACC-257, > 10 µM (inactive); in the assay on 786-0 it was 2.36 µM (inactive). The GI50 in the assay on SNB-75 is 5.52 µM (inactive); with MDA-MB-435, 4.32 µM (inactive); in the assay with HCT-15, 4.55 µM; in the assay on SNB-19, 17.9 µM (inactive); with COLO 205, 6.46 µM (inactive); in the assay on K562, 3.08 µM (inactive). For the same compound, in the assay with SK-MEL-2, the GI50 was 7.45 µM (inactive).
Take `COC(=O)c1cnn2c1ccc1ccccc12`: the GI50 with CCRF-CEM was > 100 µM (inactive); with SF-295, > 100 µM (inactive); with HL-60 it was 45.9 µM (inactive); with TK-10 it was > 100 µM (inactive); with NCI/ADR-RES, > 100 µM (inactive); with DU-145, > 100 µM (inactive). In addition, the GI50 in the assay with CAKI-1, with NCI-H226, with M14, in the assay on MOLT-4, in the assay on UACC-257 and in the assay on 786-0 was > 100 µM (inactive) in each case. In addition, the GI50 is > 100 µM (inactive) in the assay on SNB-75; > 100 µM (inactive) with MDA-MB-435; over 100 µM with HCT-15; > 100 µM (inactive) in the assay with SNB-19; > 100 µM (inactive) in the assay with COLO 205; > 100 µM (inactive) in the assay with K562. Moreover, the GI50 in the assay on SK-MEL-2 is > 100 µM (inactive).
Turning to `C=CCNC(=S)N/C=C(\C(=O)OCC)C(=O)C(=O)OCC`, the GI50 with CCRF-CEM, in the assay with SF-295, in the assay on HL-60, with OVCAR-4, with NCI/ADR-RES and in the assay with DU-145 was > 100 µM (inactive) each time. In addition, the GI50 with CAKI-1, in the assay with NCI-H226, in the assay on M14, with MOLT-4, in the assay with UACC-257 and in the assay on 786-0 was > 100 µM (inactive) throughout. Further, the GI50 was > 100 µM (inactive) in the assay on SNB-75; > 100 µM (inactive) with MDA-MB-435; over 100 µM in the assay with HCT-15; > 100 µM (inactive) in the assay with SNB-19; > 100 µM (inactive) in the assay with COLO 205; > 100 µM (inactive) in the assay on K562. In the assay on SK-MEL-2, the GI50 was > 100 µM (inactive).
Consider `CCOC(=O)NC(Nc1ccc([N+](=O)[O-])cc1)(C(F)(F)F)C(F)(F)F`, for which the GI50 with CCRF-CEM was > 100 µM (inactive); in the assay on SF-295, > 100 µM (inactive); in the assay on HL-60, 54.1 µM (inactive); in the assay on TK-10 it was 69.8 µM (inactive); in the assay on NCI/ADR-RES, 30.8 µM (inactive); in the assay with DU-145 it was > 100 µM (inactive). In addition, the GI50 in the assay with CAKI-1 is 82.4 µM (inactive); with NCI-H226 it was 40.1 µM (inactive); in the assay with M14 it was 60.4 µM (inactive); in the assay with MOLT-4 it was 54.2 µM (inactive); in the assay with UACC-257, 70.3 µM (inactive); in the assay on 786-0 it was > 100 µM (inactive). For the same compound, the GI50 was > 100 µM (inactive) in the assay with SNB-75; 21.3 µM (inactive) in the assay on MDA-MB-435; 70.6 µM with HCT-15; > 100 µM (inactive) in the assay with SNB-19; > 100 µM (inactive) with COLO 205; 53.8 µM (inactive) in the assay with K562. In the assay with SK-MEL-2, the GI50 is > 100 µM (inactive).
As for `COc1cc(/C=C/C(=O)CC(=O)/C=C/c2cc(C)c(O)c(OC)c2)cc(C)c1O`, the GI50 in the assay with CCRF-CEM is 65.6 µM (inactive); in the assay on SF-295, > 100 µM (inactive); with HL-60, 38.9 µM (inactive); in the assay with OVCAR-4 it was > 100 µM (inactive); in the assay with NCI/ADR-RES it was > 100 µM (inactive); with DU-145, > 100 µM (inactive). Further, the GI50 with CAKI-1, in the assay on NCI-H226, in the assay on M14, in the assay with MOLT-4, in the assay with UACC-257 and in the assay on 786-0 was > 100 µM (inactive) in each case. Besides, the GI50 with SNB-75 was > 100 µM (inactive); in the assay with MDA-MB-435 it was > 100 µM (inactive); in the assay on HCT-15, over 100 µM; with SNB-19, > 100 µM (inactive); in the assay with COLO 205, > 100 µM (inactive); in the assay on K562, > 100 µM (inactive). In addition, the GI50 in the assay with SK-MEL-2 was > 100 µM (inactive).
Consider `COC(=O)c1ccc(/C=N/c2ccc(S(N)(=O)=O)cc2)cc1`, for which the GI50 was 30.8 µM (inactive) in the assay on CCRF-CEM; > 100 µM (inactive) in the assay on SF-295; 97.1 µM (inactive) in the assay with HL-60; 97.9 µM (inactive) with OVCAR-4; > 100 µM (inactive) in the assay with TK-10; 58.5 µM (inactive) in the assay on NCI/ADR-RES. Moreover, the GI50 was > 100 µM (inactive) with DU-145; > 100 µM (inactive) in the assay with CAKI-1; > 100 µM (inactive) in the assay on NCI-H226; 53.5 µM (inactive) in the assay on M14; 38.4 µM (inactive) in the assay with MOLT-4; 14.2 µM (inactive) with UACC-257. For the same compound, the GI50 with 786-0 was 57.1 µM (inactive); in the assay on SNB-75 it was 58.9 µM (inactive); in the assay on MDA-MB-435, 35.4 µM (inactive); with HCT-15 it was over 100 µM; in the assay with SNB-19, > 100 µM (inactive); in the assay on COLO 205 it was > 100 µM (inactive). Also, the GI50 in the assay on SK-MEL-2 was 22 µM (inactive).
As for `C[C@]12CC[C@@H]3c4ccc(OS(N)(=O)=O)cc4CC[C@H]3[C@@H]1CCC2=O` [EMATE], the GI50 in the assay with CCRF-CEM is 39 µM (inactive); with SF-295, 36.4 µM (inactive); in the assay with HL-60 it was 33 µM (inactive); in the assay with OVCAR-4, 57.7 µM (inactive); in the assay on TK-10 it was 59.6 µM (inactive); in the assay on NCI/ADR-RES it was 26.6 µM (inactive). Besides, the GI50 with DU-145 is 42.7 µM (inactive); with CAKI-1, > 100 µM (inactive); with NCI-H226, 49.3 µM (inactive); in the assay on M14, 38.9 µM (inactive); in the assay on UACC-257, 32.4 µM (inactive); in the assay with 786-0, 53.3 µM (inactive). Further, the GI50 with SNB-75 was 42.4 µM (inactive); with MDA-MB-435, 39.4 µM (inactive); in the assay on HCT-15, 38 µM; in the assay on SNB-19, 73.3 µM (inactive); in the assay on COLO 205 it was 38.7 µM (inactive); in the assay with K562 it was 24.7 µM (inactive). The GI50 with SK-MEL-2 was 37.5 µM (inactive).
